Data published in the kinase profiling compilation of Christmann-Franck et al. (2016).

Tests used:
Experiment in all cases: KINOMEscan competition binding
Settings in all cases: compound 2.0 µM
[1] = biological target: MST4 (human) (UniProt Q9P289)
[2] = biological target: CDK11B (human) (UniProt P21127)
[3] = biological target: DYRK1A (human) (UniProt Q13627)
[4] = biological target: RPS6KA5 KD2 (human) (UniProt O75582)
[5] = biological target: ERBB4 (human) (UniProt Q15303)
[6] = biological target: ADCK4 (human) (UniProt Q96D53)
Chain of ADCK4 (human) (Q96D53 whole entry, looked up): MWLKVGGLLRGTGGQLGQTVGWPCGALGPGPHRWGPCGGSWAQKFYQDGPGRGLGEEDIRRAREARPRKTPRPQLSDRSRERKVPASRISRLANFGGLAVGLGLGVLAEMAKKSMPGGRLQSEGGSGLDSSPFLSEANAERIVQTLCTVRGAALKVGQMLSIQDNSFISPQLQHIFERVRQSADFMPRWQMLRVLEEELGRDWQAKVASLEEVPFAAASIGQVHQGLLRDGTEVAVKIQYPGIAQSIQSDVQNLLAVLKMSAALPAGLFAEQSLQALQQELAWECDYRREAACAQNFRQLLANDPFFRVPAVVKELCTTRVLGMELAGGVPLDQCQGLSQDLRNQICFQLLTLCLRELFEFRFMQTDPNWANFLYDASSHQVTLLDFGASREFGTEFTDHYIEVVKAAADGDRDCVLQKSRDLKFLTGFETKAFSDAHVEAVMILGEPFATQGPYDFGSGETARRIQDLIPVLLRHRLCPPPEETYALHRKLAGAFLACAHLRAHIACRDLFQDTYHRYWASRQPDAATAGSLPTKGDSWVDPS

[7] = biological target: CDK9 (human) (UniProt P50750)
[8] = biological target: EIF2AK1 (human) (UniProt Q9BQI3)
[9] = biological target: MATK (human) (UniProt P42679)
[10] = biological target: DMPK (human) (UniProt Q09013)
[11] = biological target: EGFR (human) (UniProt P00533)
[12] = biological target: LATS1 (human) (UniProt O95835)
Chain of LATS1 (human) (O95835 whole entry, looked up): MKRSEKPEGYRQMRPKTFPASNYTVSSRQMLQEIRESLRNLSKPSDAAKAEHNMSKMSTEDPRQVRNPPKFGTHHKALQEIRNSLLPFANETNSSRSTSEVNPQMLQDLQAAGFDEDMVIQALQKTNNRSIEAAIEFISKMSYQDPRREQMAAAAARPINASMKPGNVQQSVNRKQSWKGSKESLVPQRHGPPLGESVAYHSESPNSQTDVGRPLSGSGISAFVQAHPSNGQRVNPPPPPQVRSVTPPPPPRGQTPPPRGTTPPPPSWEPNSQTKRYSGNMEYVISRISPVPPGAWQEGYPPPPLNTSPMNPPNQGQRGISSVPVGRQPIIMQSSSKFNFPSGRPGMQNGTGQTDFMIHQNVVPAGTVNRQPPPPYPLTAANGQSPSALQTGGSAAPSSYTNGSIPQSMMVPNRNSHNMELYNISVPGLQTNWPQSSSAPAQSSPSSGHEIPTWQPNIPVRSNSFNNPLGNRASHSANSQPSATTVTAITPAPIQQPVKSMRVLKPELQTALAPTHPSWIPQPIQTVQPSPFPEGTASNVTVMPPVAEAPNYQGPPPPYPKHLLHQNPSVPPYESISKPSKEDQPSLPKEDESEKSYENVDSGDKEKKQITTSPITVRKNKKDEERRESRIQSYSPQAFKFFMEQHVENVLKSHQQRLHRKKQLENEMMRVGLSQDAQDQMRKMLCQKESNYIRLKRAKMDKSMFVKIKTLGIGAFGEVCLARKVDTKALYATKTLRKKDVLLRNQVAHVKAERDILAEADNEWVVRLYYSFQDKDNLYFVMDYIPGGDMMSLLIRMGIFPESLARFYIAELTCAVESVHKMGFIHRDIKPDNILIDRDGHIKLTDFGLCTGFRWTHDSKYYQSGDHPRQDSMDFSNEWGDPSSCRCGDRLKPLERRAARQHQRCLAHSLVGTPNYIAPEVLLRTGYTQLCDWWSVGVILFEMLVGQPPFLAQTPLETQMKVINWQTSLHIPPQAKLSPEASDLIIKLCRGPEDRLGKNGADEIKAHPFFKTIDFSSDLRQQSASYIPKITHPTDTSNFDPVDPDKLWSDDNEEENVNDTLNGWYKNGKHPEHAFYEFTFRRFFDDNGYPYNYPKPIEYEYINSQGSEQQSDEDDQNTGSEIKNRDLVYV

[13] = biological target: NLK (human) (UniProt Q9UBE8)
[14] = biological target: PIP4K2C (human) (UniProt Q8TBX8)
[15] = tested on: PIK3CA (human), P42336 [H1047L]
[16] = biological target: HIPK1 (human) (UniProt Q86Z02)
[17] = biological target: MAPK15 (human) (UniProt Q8TD08)
[18] = tested on: EIF2AK4 KD2 (human), Q9P2K8 [S808G]
[19] = tested on: KIT (human), P10721 [A829P]
[20] = biological target: TYK2 JH2 pseudokinase (human) (UniProt P29597)
[21] = biological target: PRKCQ (human) (UniProt Q04759)
[22] = biological target: TGFBR1 (human) (UniProt P36897)
[23] = biological target: TBK1 (human) (UniProt Q9UHD2)
Chain of TBK1 (human) (Q9UHD2 whole entry, looked up): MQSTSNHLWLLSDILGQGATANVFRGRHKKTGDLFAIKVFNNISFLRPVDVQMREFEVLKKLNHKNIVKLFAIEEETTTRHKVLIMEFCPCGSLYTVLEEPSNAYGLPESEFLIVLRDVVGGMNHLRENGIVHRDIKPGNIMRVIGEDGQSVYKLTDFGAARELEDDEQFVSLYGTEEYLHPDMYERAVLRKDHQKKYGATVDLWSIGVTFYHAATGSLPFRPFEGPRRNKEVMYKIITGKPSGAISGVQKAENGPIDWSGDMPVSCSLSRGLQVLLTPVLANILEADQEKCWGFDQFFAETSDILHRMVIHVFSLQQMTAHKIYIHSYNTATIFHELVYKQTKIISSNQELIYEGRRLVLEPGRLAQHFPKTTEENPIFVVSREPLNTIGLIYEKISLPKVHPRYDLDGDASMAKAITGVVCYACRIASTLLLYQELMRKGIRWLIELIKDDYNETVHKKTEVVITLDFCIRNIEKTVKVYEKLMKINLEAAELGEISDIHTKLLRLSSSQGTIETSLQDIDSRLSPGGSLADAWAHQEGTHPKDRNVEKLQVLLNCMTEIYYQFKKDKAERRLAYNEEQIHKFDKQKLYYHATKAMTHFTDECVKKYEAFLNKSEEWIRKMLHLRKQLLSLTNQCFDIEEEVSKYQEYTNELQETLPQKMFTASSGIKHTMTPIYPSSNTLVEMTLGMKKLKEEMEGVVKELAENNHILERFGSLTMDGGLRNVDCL

[24] = biological target: NEK3 (human) (UniProt P51956)
[25] = biological target: FGFR4 (human) (UniProt P22455)
[26] = biological target: ACVRL1 (human) (UniProt P37023)
[27] = biological target: STK11 (human) (UniProt Q15831)
[28] = biological target: NEK11 (human) (UniProt Q8NG66)
[29] = biological target: MAPK13 (human) (UniProt O15264)
[30] = biological target: NUAK1 (human) (UniProt O60285)
[31] = biological target: PAK2 (human) (UniProt Q13177)
[32] = biological target: ROCK2 (human) (UniProt O75116)
[33] = biological target: LYN (human) (UniProt P07948)
[34] = biological target: PDGFRA (human) (UniProt P16234)
[35] = biological target: MAP4K3 (human) (UniProt Q8IVH8)
Chain of MAP4K3 (human) (Q8IVH8 whole entry, looked up): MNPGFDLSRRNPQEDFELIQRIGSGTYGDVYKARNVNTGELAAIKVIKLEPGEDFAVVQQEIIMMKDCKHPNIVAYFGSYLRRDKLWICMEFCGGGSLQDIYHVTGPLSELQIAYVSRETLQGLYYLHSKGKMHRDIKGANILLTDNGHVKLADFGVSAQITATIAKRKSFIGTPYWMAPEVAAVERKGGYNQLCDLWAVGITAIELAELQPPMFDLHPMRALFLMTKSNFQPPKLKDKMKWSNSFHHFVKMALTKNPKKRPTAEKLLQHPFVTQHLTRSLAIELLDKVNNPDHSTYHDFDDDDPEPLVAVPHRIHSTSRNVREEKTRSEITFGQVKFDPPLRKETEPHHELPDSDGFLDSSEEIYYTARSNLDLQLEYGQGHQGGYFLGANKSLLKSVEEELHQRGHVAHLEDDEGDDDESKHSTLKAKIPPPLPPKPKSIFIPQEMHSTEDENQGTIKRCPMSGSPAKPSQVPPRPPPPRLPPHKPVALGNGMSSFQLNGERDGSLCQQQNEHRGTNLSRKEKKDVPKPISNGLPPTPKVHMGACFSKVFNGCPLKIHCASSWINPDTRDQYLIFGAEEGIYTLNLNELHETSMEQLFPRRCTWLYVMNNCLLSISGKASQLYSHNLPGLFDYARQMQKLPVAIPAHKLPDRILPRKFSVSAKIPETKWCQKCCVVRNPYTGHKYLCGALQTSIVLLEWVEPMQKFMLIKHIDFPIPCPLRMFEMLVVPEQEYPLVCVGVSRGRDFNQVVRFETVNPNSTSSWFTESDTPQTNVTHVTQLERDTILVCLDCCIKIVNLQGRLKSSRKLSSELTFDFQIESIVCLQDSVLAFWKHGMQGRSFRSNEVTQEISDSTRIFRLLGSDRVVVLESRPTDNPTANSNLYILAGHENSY

[36] = biological target: PLK3 (human) (UniProt Q9H4B4)
Chain of PLK3 (human) (Q9H4B4 whole entry, looked up): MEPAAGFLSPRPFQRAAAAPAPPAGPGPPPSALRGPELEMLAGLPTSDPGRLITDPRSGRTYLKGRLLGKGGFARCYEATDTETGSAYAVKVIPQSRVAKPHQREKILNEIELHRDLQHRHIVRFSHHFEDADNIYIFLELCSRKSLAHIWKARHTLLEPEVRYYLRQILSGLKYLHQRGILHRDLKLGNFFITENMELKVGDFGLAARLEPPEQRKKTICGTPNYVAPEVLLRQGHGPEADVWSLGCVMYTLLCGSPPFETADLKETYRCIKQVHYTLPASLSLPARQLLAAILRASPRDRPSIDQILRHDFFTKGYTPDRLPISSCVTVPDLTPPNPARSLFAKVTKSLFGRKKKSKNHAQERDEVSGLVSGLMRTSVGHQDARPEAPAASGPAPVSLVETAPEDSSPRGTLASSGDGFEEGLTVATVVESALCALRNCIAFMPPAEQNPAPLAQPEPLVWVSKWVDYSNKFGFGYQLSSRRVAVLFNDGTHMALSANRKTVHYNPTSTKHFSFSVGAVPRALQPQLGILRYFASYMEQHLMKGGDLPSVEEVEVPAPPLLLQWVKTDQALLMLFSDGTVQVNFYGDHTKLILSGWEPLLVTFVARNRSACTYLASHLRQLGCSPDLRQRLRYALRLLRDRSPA

[37] = biological target: CSNK1D (human) (UniProt P48730)
Chain of CSNK1D (human) (P48730 whole entry, looked up): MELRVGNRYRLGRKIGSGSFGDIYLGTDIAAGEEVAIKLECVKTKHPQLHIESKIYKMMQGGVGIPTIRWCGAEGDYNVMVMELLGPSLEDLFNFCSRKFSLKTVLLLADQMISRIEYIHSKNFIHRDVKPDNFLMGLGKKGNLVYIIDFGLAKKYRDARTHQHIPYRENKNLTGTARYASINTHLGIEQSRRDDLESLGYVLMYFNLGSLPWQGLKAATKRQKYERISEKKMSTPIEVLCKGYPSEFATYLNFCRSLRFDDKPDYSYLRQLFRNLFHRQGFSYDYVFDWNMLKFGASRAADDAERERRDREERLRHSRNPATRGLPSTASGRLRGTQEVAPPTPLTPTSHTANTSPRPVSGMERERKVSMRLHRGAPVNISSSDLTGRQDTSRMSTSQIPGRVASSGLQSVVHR

[38] = biological target: ANKK1 (human) (UniProt Q8NFD2)
[39] = biological target: MAPKAPK2 (human) (UniProt P49137)
[40] = biological target: ULK2 (human) (UniProt Q8IYT8)
[41] = biological target: CDC42BPA (human) (UniProt Q5VT25)
[42] = biological target: MAPK1 (human) (UniProt P28482)

Chain of MST4 (human) (Q9P289 whole entry, looked up): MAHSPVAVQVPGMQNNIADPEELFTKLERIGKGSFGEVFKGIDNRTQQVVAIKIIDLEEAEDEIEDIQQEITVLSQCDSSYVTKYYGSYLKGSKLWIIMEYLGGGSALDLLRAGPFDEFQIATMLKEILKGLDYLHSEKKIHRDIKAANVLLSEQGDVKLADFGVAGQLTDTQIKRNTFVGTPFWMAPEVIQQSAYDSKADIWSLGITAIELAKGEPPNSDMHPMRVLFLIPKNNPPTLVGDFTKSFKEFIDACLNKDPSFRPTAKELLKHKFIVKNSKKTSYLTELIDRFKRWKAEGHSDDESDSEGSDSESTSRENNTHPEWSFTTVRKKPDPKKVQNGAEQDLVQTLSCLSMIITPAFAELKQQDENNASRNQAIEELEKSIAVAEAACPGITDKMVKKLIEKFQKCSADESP

SMILES: N#Cc1ccc2ncnc(NCCc3ccc4ccccc4c3)c2c1
- kinase still bound, per cent of control [1]: 77%
- kinase still bound, per cent of control [2]: 99%
- kinase still bound, per cent of control [3]: 100%
- kinase still bound, per cent of control [4]: 100%
- kinase still bound, per cent of control [5]: 98%
- kinase still bound, per cent of control [6]: 100%
- kinase still bound, per cent of control [7]: 100%
- kinase still bound, per cent of control [8]: 100%
- kinase still bound, per cent of control [9]: 100%
- kinase still bound, per cent of control [10]: 100%
- kinase still bound, per cent of control [11]: 75%
- kinase still bound, per cent of control [12]: 93%
- kinase still bound, per cent of control [13]: 85%
- kinase still bound, per cent of control [14]: 91%
- kinase still bound, per cent of control [15]: 100%
- kinase still bound, per cent of control [16]: 100%
- kinase still bound, per cent of control [17]: 84%
- kinase still bound, per cent of control [18]: 80%
- kinase still bound, per cent of control [19]: 89%
- kinase still bound, per cent of control [20]: 92%
- kinase still bound, per cent of control [21]: 100%
- kinase still bound, per cent of control [22]: 100%
- kinase still bound, per cent of control [23]: 100%
- kinase still bound, per cent of control [24]: 100%
- kinase still bound, per cent of control [25]: 100%
- kinase still bound, per cent of control [26]: 100%
- kinase still bound, per cent of control [27]: 100%
- kinase still bound, per cent of control [28]: 99%
- kinase still bound, per cent of control [29]: 100%
- kinase still bound, per cent of control [30]: 75%
- kinase still bound, per cent of control [31]: 82%
- kinase still bound, per cent of control [32]: 92%
- kinase still bound, per cent of control [33]: 99%
- kinase still bound, per cent of control [34]: 92%
- kinase still bound, per cent of control [35]: 100%
- kinase still bound, per cent of control [36]: 80%
- kinase still bound, per cent of control [37]: 99%
- kinase still bound, per cent of control [38]: 100%
- kinase still bound, per cent of control [39]: 100%
- kinase still bound, per cent of control [40]: 100%
- kinase still bound, per cent of control [41]: 100%
- kinase still bound, per cent of control [42]: 100%
